Measured values published in EP2727911B1, “Novel means and methods for treating malaria and other parasitic disorders” (Medizinische Hochschule Hannover, priority 2012, dated 2014).
Where a name gives a salt, the structure may show the parent alone.

Target: T1, Dd myosin-1b (Dictyostelium discoideum, UniProt P34092)
T1 sequence (P34092 1-1111): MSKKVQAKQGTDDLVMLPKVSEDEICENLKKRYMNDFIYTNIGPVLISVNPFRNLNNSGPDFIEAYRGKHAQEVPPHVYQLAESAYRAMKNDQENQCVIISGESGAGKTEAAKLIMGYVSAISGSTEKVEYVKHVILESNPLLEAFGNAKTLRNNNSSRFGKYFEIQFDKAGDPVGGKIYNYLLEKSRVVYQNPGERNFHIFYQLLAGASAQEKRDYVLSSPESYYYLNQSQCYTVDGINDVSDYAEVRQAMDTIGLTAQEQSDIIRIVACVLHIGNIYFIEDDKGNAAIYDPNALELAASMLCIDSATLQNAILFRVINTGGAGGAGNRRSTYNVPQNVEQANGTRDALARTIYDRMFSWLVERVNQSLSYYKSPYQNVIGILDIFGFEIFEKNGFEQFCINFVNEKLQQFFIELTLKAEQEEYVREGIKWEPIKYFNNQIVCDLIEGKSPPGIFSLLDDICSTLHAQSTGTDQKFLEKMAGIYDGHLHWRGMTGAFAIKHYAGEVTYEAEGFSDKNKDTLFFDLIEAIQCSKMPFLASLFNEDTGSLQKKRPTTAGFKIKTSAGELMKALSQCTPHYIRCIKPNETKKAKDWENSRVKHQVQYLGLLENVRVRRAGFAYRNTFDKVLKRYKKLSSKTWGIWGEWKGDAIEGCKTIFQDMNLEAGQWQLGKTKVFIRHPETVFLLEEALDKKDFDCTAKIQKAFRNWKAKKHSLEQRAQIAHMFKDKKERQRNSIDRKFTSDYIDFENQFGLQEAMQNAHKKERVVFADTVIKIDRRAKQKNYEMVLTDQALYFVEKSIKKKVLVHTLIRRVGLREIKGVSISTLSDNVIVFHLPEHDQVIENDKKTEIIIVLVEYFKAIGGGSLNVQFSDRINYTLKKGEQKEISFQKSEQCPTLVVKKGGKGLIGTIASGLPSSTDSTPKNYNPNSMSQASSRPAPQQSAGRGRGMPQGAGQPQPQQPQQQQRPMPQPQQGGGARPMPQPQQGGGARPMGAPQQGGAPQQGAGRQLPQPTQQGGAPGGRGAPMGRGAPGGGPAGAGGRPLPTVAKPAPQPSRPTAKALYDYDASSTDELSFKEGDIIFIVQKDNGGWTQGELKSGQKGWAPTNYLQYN
Assay: Actin-activated steady state ATPase assay (PK/LDH-coupled, photometric)
Format: biochemical
Conditions: in the presence of 30 µM F-actin, nonlinear regression
Procedure: In this assay, the ATPase activity of Dictyostelium discoideum myosin-1b is determined, preferably at a ligand concentration of 25µM. Furthermore, the IC50 concentration has been determined by measuring ATPase activity as a function of inhibitor concentration. Alternatively Dictyostelium discoideum myosin-2 can be used.
Actin-activated steady state ATPase experiments were performed following the absorbance change during NADH oxidation in a PK/LDH-coupled ATPase assay at 340 nm […] (Trentham (1972); Furch (1998)). The photometric steady state ATPase assay was applied to determine the potency of the small molecule compounds to inhibit the enzymatic activity of myosin. Dd myosin-1b was used as a model system for the target protein (Pf myosin A). All experiments were carried out in the presence of 30 µM F-actin and the corresponding half-maximal inhibitory concentrations (IC50) were determined by nonlinear regression.

- IC50: 8.07 ± 0.8 µM
SMILES: COC(=N)Cc1ccc(O)cc1 [BIP13, Methyl-2-(4-hydroxyphenyl)acetimidate·hydrochloride]
